Experimental data: patent US7718385B2, “Bioactivation of alkylating agents for cancer treatment” (priority 2003, dated 2010)

Columns and labels:
CAKI-1 = conditions: CAKI-1, Renal, cited from earlier work
HCC-2998 = conditions: HCC-2998, Colon, cited from earlier work
DU-145 = conditions: DU-145, Prostate, cited from earlier work
SF-295 = conditions: SF-295, Central Nervous System, cited from earlier work
HOP-92 = conditions: HOP-92, Non-Small Cell Lung, cited from earlier work
MDA-MB 435 = conditions: MDA-MB 435, Breast, cited from earlier work
U251 = conditions: U251, Central Nervous System, cited from earlier work
OVCAR-3 = conditions: OVCAR-3, Ovarian, cited from earlier work
UO-31 = conditions: UO-31, Renal; cited from earlier work
A549/ATCC = conditions: cited from earlier work
NCI-H322M = conditions: cited from earlier work
SK-MEL-5 = conditions: SK-MEL-5, Melanoma, cited from earlier work
recombinant AOR = target: T1, recombinant AOR (Rattus norvegicus, UniProt P97584, Q160G/Q263G/Q264G/Q276G); test: LC/MS/MS of enzymatic and nonenzymatic GSH adducts; format: biochemical; conditions: incubations with AOR, GSH and NADPH, 1 h, 37° C.
T1 construct: made in house
T1 sequence (P97584 whole entry Q160G/Q263G/Q264G/Q276G): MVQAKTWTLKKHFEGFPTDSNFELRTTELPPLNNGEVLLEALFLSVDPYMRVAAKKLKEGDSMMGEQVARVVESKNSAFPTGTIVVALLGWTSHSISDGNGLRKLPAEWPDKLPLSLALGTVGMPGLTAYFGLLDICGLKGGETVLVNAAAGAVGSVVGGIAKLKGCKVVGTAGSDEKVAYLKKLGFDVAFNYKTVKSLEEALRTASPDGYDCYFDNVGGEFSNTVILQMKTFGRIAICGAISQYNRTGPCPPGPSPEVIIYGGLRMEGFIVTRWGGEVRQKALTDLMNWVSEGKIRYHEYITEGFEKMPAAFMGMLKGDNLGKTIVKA
Description: High Performance Liquid Chromatography with Tandem Mass Spectrometry (LC/MS/MS) of GSA Adducts. […] These reactions were incubated at 37° C. for 1 h. Controls lacking NAFPH were performed. Reactions were stopped and deproteinized with addition of 400 μl of ice-cold acetonitrile, spun at 3500×g for 10 min at 4° C., and the supernatants were evaporated to dryness under vacuum. Residual GSH and NADPH cofactors were removed using an Oasis C18 sample prep column (Waters Chromatography). Adducts were eluted with methanol, evaporated to dryness under vacuum, resuspended in […] of 0.1% acetic acid, and detected using liquid chromatography electrospray ionization tandem mass spectrometry performed in the positive ion mode. […] A flow rate of 0.1 ml/min and gradient of 0% buffer D (70% acetic acid (0.1%):30% acetonitrile) to 100% buffer E (20% acetic acid (0.1%):80% acetonitrile) over 30 min were used to resolve the compounds. Adducts were detected by monitoring for selected molecular ions or characteristic molecular fragments after MS/MS. Molecular fragments were obtained with 35% relative collusion energy.
Measuring GSH adduction is a commonly used technique for estimating covalent protein binding, and thus cytotoxicity, of a drug (Baillie and Kassahun, 2001). The nucleophilic thiol moiety of GSH effectively scavenges electrophilic molecules and its large size and charge prevent it from entering the active site of most enzymes. […] Daughter ions of adducts, which represent the loss of water (−18 m/z) or […] (−129 m/z), were common and monitored for in these experiments following MS/MS.
Enzymatic reduction occurred in incubations containing recombinant AOR, NADPH, and GSH, while companion nonenzymatic reductions lacked NADPH. […] However the NE irofulven-GSH adduct (FIG. 5B) was detected only after monitoring for a daughter ion (M+—H2)=536 m/z) and was 42-fold less abundant than the E adduct. […] Contrary to findings with irofulven, a great deal of NE illudin M-GSH adduct was detected in NADPH-deficient incubations.

KM12 = conditions: KM12, Colon, cited from earlier work
[1] = read-out: LC50, Non-Small Cell Lung

What does the source list for `CC1=C(CO)C2=C(C)C3(CC3)[C@@](C)(O)C(=O)C2=C1` [Irofulven, 6-hydroxymethylacylfulvene]?
GI50 (CAKI-1): 251 nM; TGI (CAKI-1): 7.94E−07; log(GI50) (CAKI-1): −6.6; log(LC50) (CAKI-1): −4.3; log(TGI) (CAKI-1): −6.1; CC50 (CAKI-1; read-out: LC50): 50.1 µM; GI50 (HCC-2998): 158 nM; TGI (HCC-2998): 3.16E−07; log(GI50) (HCC-2998): −6.8; log(LC50) (HCC-2998): −6.2; log(TGI) (HCC-2998): −6.5; CC50 (HCC-2998; read-out: LC50): 631 nM; GI50 (DU-145): 100 nM; TGI (DU-145): 2.00E−07; log(GI50) (DU-145): −7; log(TGI) (DU-145): −6.7; CC50 (DU-145; read-out: LC50): ≥ 100 µM; GI50 (SF-295): 316 nM; TGI (SF-295): 6.31E−06; log(GI50) (SF-295): −6.5; log(LC50) (SF-295): −5; log(TGI) (SF-295): −5.2; CC50 (SF-295; read-out: LC50): 10 µM; GI50 (HOP-92): 316 nM; TGI (HOP-92): 6.31E−07; log(GI50) (HOP-92): −6.5; log(LC50) (HOP-92): −4.6; log(TGI) (HOP-92): −6.2; CC50 (HOP-92; read-out: LC50): 25.1 µM; GI50 (MDA-MB 435): 1580 nM; TGI (MDA-MB 435): 6.31E−06; log(GI50) (MDA-MB 435): −5.8; log(LC50) (MDA-MB 435): −4.4; log(TGI) (MDA-MB 435): −5.2; CC50 (MDA-MB 435; read-out: LC50): 39.8 µM; GI50 (U251): 316 nM; TGI (U251): 6.31E−06; log(GI50) (U251): −6.5; log(LC50) (U251): −4.3; log(TGI) (U251): −5.2; CC50 (U251; read-out: LC50): 50.1 µM; GI50 (OVCAR-3): 251 nM; TGI (OVCAR-3): 6.31E−07; log(GI50) (OVCAR-3): −6.6; log(TGI) (OVCAR-3): −6.2; CC50 (OVCAR-3; read-out: LC50): ≥ 100 µM; GI50 (UO-31): 200 nM; TGI (UO-31): 5.01E−07; log(GI50) (UO-31): −6.7; log(TGI) (UO-31): −6.3; GI50 (A549/ATCC; Non-Small Cell Lung): 126 nM; TGI (A549/ATCC; Non-Small Cell Lung): 1.58E−06; log(GI50) (A549/ATCC; Non-Small Cell Lung): −6.9; log(TGI) (A549/ATCC; Non-Small Cell Lung): −5.8; CC50 (A549/ATCC; [1]): ≥ 100 µM; GI50 (NCI-H322M; Non-Small Cell Lung): 251 nM; TGI (NCI-H322M; Non-Small Cell Lung): 6.31E−07; log(GI50) (NCI-H322M; Non-Small Cell Lung): −6.6; log(LC50) (NCI-H322M; Non-Small Cell Lung): −4.9; log(TGI) (NCI-H322M; Non-Small Cell Lung): −6.2; CC50 (NCI-H322M; [1]): 12.6 µM; GI50 (SK-MEL-5): 158 nM; TGI (SK-MEL-5): 3.98E−07; log(GI50) (SK-MEL-5): −6.8; log(LC50) (SK-MEL-5): −6; log(TGI) (SK-MEL-5): −6.4; CC50 (SK-MEL-5; read-out: LC50): 1000 nM; abundance of E (enzymatic) GSH adduct over NE (nonenzymatic) adduct (recombinant AOR): 42 fold; GI50 (KM12): 631 nM; TGI (KM12): 2.51E−06; log(GI50) (KM12): −6.2; log(LC50) (KM12): −4.9; log(TGI) (KM12): −5.6; CC50 (KM12; read-out: LC50): 12.6 µM
